# Where a SMILES comes first, the peptide text is derived from it. [ ]: non-standard residue; d: D form. The star is where a group is joined. Desaminotyrosyl = O=C(CCc1ccc(O)cc1)*; Nle = CCCC[C@H](N)C(=O)O; Aib = CC(C)(N)C(=O)O
# Assays:
# [1] = biological target: T1, human recombinant GIP receptor (Homo sapiens, UniProt P48546); experiment: In vitro hGIP receptor binding assay
# T1 construct: expressed in transfected cells; host or cells: CHO-K1 clonal cells (membrane preparation)
# T1 sequence (P48546 22-466): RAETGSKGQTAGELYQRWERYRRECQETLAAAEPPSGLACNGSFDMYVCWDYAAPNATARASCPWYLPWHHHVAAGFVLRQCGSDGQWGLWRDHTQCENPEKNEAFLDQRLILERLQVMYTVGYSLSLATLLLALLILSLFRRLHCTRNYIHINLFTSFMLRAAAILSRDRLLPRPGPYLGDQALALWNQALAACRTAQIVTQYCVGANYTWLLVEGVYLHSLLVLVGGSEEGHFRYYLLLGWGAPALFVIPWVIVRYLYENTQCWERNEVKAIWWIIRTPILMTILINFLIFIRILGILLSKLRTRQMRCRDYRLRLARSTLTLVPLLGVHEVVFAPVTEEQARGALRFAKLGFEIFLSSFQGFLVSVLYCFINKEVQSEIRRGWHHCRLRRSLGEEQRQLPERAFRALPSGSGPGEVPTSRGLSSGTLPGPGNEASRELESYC
# Experimental: A. In Vitro hGIP Receptor Binding Assay […] The incubations were terminated by rapid filtration through GF/C filters (pre-soaked in 0.5% polyethylenimine) using a Brandel filtration manifold. Each tube and filter were then washed three times with 5-ml aliquots of ice-cold buffer.
# [2] = Human plasma half-life assay; format: in vitro ADME; conditions: 37° C., LC-MS, read-out: Human Plasma T½ (converted)
# [3] = Rat plasma half-life assay; format: in vitro ADME; conditions: 37° C., LC-MS, read-out: Rat Plasma T½ (converted)
SMILES,Ki [1],half-life at 0.1 mg/ml [2],half-life at 0.1 mg/ml [3]
"CC[C@H](C)[C@H](NC(=O)[C@H](CCCCN)NC(=O)[C@H](CC(=O)O)NC(=O)[C@H](CCSC)NC(=O)[C@H](C)NC(=O)[C@@H](NC(=O)C1(NC(=O)[C@H](Cc2ccc(O)cc2)NC(=O)[C@H](CC(=O)O)NC(=O)[C@H](CO)NC(=O)[C@@H](NC(=O)[C@H](Cc2ccccc2)NC(=O)[C@@H](NC(=O)CNC(=O)[C@H](CCC(=O)O)NC(=O)C(C)(C)NC(=O)[C@@H](N)CCc2ccc(O)cc2)[C@@H](C)O)[C@@H](C)CC)CCCC1)[C@@H](C)CC)C(=O)N[C@@H](Cc1c[nH]cn1)C(=O)N[C@@H](CCC(N)=O)C(=O)N[C@@H](CCC(N)=O)C(=O)N[C@@H](CC(=O)O)C(=O)N[C@@H](Cc1ccccc1)C(=O)N[C@H](C(=O)N[C@@H](CC(N)=O)C(=O)N[C@@H](Cc1c[nH]c2ccccc12)C(=O)N[C@@H](CC(C)C)C(=O)N[C@@H](CC(C)C)C(=O)N[C@@H](C)C(=O)N[C@@H](CCC(N)=O)C(=O)N[C@@H](CCCCN)C(=O)NCC(=O)N[C@@H](CCCCN)C(=O)N[C@@H](CCCCN)C(=O)N[C@@H](CC(N)=O)C(=O)N[C@@H](CC(=O)O)C(=O)N[C@@H](Cc1c[nH]c2ccccc12)C(=O)N[C@@H](CCCCN)C(=O)N[C@@H](Cc1c[nH]cn1)C(=O)N[C@@H](CC(N)=O)C(=O)N[C@H](C(=O)N[C@H](C(=O)N[C@@H](CCC(N)=O)C(=O)N[C@@H](Cc1c[nH]cn1)C(=O)O)[C@@H](C)O)[C@@H](C)CC)C(C)C [Example 80, (hTyr^1, Aib^2, A5c^11, His^43)hGIP(1-43)-OH]",9.42 nM,22.6 h,18.4 h
"CC[C@H](C)[C@H](NC(=O)[C@H](CCCCN)NC(=O)[C@H](CC(=O)O)NC(=O)[C@H](CCSC)NC(=O)[C@H](C)NC(=O)[C@@H](NC(=O)C1(NC(=O)[C@H](Cc2ccc(O)cc2)NC(=O)[C@H](CC(=O)O)NC(=O)[C@H](CO)NC(=O)[C@@H](NC(=O)[C@H](Cc2ccccc2)NC(=O)[C@@H](NC(=O)CNC(=O)[C@H](CCC(=O)O)NC(=O)C(C)(C)NC(=O)[C@@H](N)Cc2ccc(OC(C)=O)cc2)[C@@H](C)O)[C@@H](C)CC)CCCC1)[C@@H](C)CC)C(=O)N[C@@H](Cc1c[nH]cn1)C(=O)N[C@@H](CCC(N)=O)C(=O)N[C@@H](CCC(N)=O)C(=O)N[C@@H](CC(=O)O)C(=O)N[C@@H](Cc1ccccc1)C(=O)N[C@H](C(=O)N[C@@H](CC(N)=O)C(=O)N[C@@H](Cc1c[nH]c2ccccc12)C(=O)N[C@@H](CC(C)C)C(=O)N[C@@H](CC(C)C)C(=O)N[C@@H](C)C(=O)N[C@@H](CCC(N)=O)C(=O)N[C@@H](CCCCN)C(=O)NCC(=O)N[C@@H](CCCCN)C(=O)N[C@@H](CCCCN)C(=O)N[C@@H](CC(N)=O)C(=O)N[C@@H](CC(=O)O)C(=O)N[C@@H](Cc1c[nH]c2ccccc12)C(=O)N[C@@H](CCCCN)C(=O)N[C@@H](Cc1c[nH]cn1)C(=O)N[C@@H](CC(N)=O)C(=O)N[C@H](C(=O)NC1(C(=O)N[C@@H](CCC(N)=O)C(=O)O)CCCC1)[C@@H](C)CC)C(C)C [Example 29, [Tyr(Ac)^1, Aib^2, A5c^11, 41]hGIP(1-42)-OH]",0.73 nM,29.5 h,18.9 h
"CCCC[C@H](NC(=O)[C@H](C)NC(=O)[C@@H](NC(=O)[C@H](CO)NC(=O)[C@H](Cc1ccc(O)cc1)NC(=O)[C@H](CC(=O)O)NC(=O)[C@H](CO)NC(=O)[C@@H](NC(=O)[C@H](Cc1ccccc1)NC(=O)[C@@H](NC(=O)CNC(=O)[C@H](CCC(=O)O)NC(=O)C(C)(C)NC(=O)CCc1ccc(O)cc1)[C@@H](C)O)[C@@H](C)CC)[C@@H](C)CC)C(=O)N[C@@H](CC(=O)O)C(=O)N[C@@H](CCCCN)C(=O)N[C@H](C(=O)N[C@@H](Cc1c[nH]cn1)C(=O)N[C@@H](CCC(N)=O)C(=O)N[C@@H](CCC(N)=O)C(=O)N[C@@H](CC(=O)O)C(=O)N[C@@H](Cc1ccccc1)C(=O)N[C@H](C(=O)N[C@@H](CC(N)=O)C(=O)N[C@@H](Cc1c[nH]c2ccccc12)C(=O)N[C@@H](CC(C)C)C(=O)N[C@@H](CC(C)C)C(=O)N[C@@H](C)C(=O)N[C@@H](CCC(N)=O)C(=O)N[C@@H](CCCCN)C(N)=O)C(C)C)[C@@H](C)CC [Example 5, (4Hppa^1, Aib^2, Nle^14)hGIP(1-30)-NH2] (Desaminotyrosyl-[Aib]EGTFISDYSIA[Nle]DKIHQQDFVNWLLAQK-NH2)",2.95 nM,50.6 h,83.5 h
"CC[C@H](C)[C@H](NC(=O)[C@H](CCCCN)NC(=O)[C@H](CC(=O)O)NC(=O)C1(NC(=O)[C@H](C)NC(=O)[C@@H](NC(=O)C2(NC(=O)[C@H](Cc3ccc(O)cc3)NC(=O)[C@H](CC(=O)O)NC(=O)[C@H](CO)NC(=O)[C@@H](NC(=O)[C@H](Cc3ccccc3)NC(=O)[C@@H](NC(=O)CNC(=O)[C@H](CCC(=O)O)NC(=O)C(C)(C)NC(=O)[C@@H](N)Cc3c(C)cc(O)cc3C)[C@@H](C)O)[C@@H](C)CC)CCCC2)[C@@H](C)CC)CCCC1)C(=O)N[C@@H](Cc1c[nH]cn1)C(=O)N[C@@H](CCC(N)=O)C(=O)N[C@@H](CCC(N)=O)C(=O)N[C@@H](CC(=O)O)C(=O)N[C@@H](Cc1ccccc1)C(=O)N[C@H](C(=O)N[C@@H](CC(N)=O)C(=O)N[C@@H](Cc1c[nH]c2ccccc12)C(=O)N[C@@H](CC(C)C)C(=O)N[C@@H](CC(C)C)C(=O)N[C@@H](C)C(=O)N[C@@H](CCC(N)=O)C(=O)N[C@@H](CCCCN)C(=O)NCC(=O)N[C@@H](CCCCN)C(=O)N[C@@H](CCCCN)C(=O)N[C@@H](CC(N)=O)C(=O)N[C@@H](CC(=O)O)C(=O)N[C@@H](Cc1c[nH]c2ccccc12)C(=O)N[C@@H](CCCCN)C(=O)N[C@@H](Cc1c[nH]cn1)C(=O)N[C@@H](CC(N)=O)C(=O)N[C@H](C(=O)N[C@H](C(=O)N[C@@H](CCC(N)=O)C(=O)N[C@@H](Cc1c[nH]cn1)C(=O)O)[C@@H](C)O)[C@@H](C)CC)C(C)C [Example 54, (2,6Me-Tyr^1, Aib^2, A5c^11, 14, His^43)hGIP(1-43)-OH]",50.2 nM,> 50 h,21.5 h
"CC[C@H](C)[C@H](NC(=O)[C@H](CCCCN)NC(=O)[C@H](CC(=O)O)NC(=O)[C@H](CCSC)NC(=O)[C@H](C)NC(=O)[C@@H](NC(=O)C1(NC(=O)[C@H](Cc2ccc(O)cc2)NC(=O)[C@H](CC(=O)O)NC(=O)[C@H](CO)NC(=O)[C@@H](NC(=O)[C@H](Cc2ccccc2)NC(=O)[C@@H](NC(=O)CNC(=O)[C@H](CCC(=O)O)NC(=O)C(C)(C)NC(=O)[C@@H](N)Cc2ccc(O)c(O)c2)[C@@H](C)O)[C@@H](C)CC)CCCC1)[C@@H](C)CC)C(=O)N[C@@H](Cc1c[nH]cn1)C(=O)N[C@@H](CCC(N)=O)C(=O)N[C@@H](CCC(N)=O)C(=O)N[C@@H](CC(=O)O)C(=O)N[C@@H](Cc1ccccc1)C(=O)N[C@H](C(=O)N[C@@H](CC(N)=O)C(=O)N[C@@H](Cc1c[nH]c2ccccc12)C(=O)N[C@@H](CC(C)C)C(=O)N[C@@H](CC(C)C)C(=O)N[C@@H](C)C(=O)N[C@@H](CCC(N)=O)C(=O)N[C@@H](CCCCN)C(=O)NCC(=O)N[C@@H](CCCCN)C(=O)N[C@@H](CCCCN)C(=O)N[C@@H](CC(N)=O)C(=O)N[C@@H](CC(=O)O)C(=O)N[C@@H](Cc1c[nH]c2ccccc12)C(=O)N[C@@H](CCCCN)C(=O)N[C@@H](Cc1c[nH]cn1)C(=O)N[C@@H](CC(N)=O)C(=O)N[C@H](C(=O)NC1(C(=O)N[C@@H](CCC(N)=O)C(=O)O)CCCC1)[C@@H](C)CC)C(C)C [Example 27, (30H-Tyr^1, Aib^2, A5c^11, 41)hGIP(1-42)-OH]",6.69 nM,7 h,5.1 h
"CCCC[C@H](NC(=O)[C@H](C)NC(=O)[C@@H](NC(=O)C1(NC(=O)[C@H](Cc2ccc(O)cc2)NC(=O)[C@H](CC(=O)O)NC(=O)[C@H](CO)NC(=O)[C@@H](NC(=O)[C@H](Cc2ccccc2)NC(=O)[C@@H](NC(=O)CNC(=O)[C@H](CCC(=O)O)NC(=O)C(C)(C)NC(=O)[C@@H](N)Cc2cccc(F)c2)[C@@H](C)O)[C@@H](C)CC)CCCC1)[C@@H](C)CC)C(=O)N[C@@H](CC(=O)O)C(=O)N[C@@H](CCCCN)C(=O)N[C@H](C(=O)N[C@@H](Cc1c[nH]cn1)C(=O)N[C@@H](CCC(N)=O)C(=O)N[C@@H](CCC(N)=O)C(=O)N[C@@H](CC(=O)O)C(=O)N[C@@H](Cc1ccccc1)C(=O)N[C@H](C(=O)N[C@@H](CC(N)=O)C(=O)N[C@@H](Cc1c[nH]c2ccccc12)C(=O)N[C@@H](CC(C)C)C(=O)N[C@@H](CC(C)C)C(=O)N[C@@H](C)C(=O)N[C@@H](CCC(N)=O)C(=O)N[C@@H](CCCCN)C(=O)NCC(=O)N[C@@H](CCCCN)C(=O)N[C@@H](CCCCN)C(=O)N[C@@H](CC(N)=O)C(=O)N[C@@H](CC(=O)O)C(=O)N[C@@H](Cc1c[nH]c2ccccc12)C(=O)N[C@@H](CCCCN)C(=O)N[C@@H](Cc1c[nH]cn1)C(=O)N[C@@H](CC(N)=O)C(=O)N[C@H](C(=O)N[C@H](C(=O)N[C@@H](CCC(N)=O)C(=O)O)[C@@H](C)O)[C@@H](C)CC)C(C)C)[C@@H](C)CC [Example 23, (3F-Phe^1, Aib^2, A5c^11, Nle^14)hGIP(1-42)-OH]",2.7 nM,> 74 h,> 74 h

# Reference: US8999940B2 (Ipsen Pharma S.A.S., priority 2008, dated 2015)
